The text below walks through data of patent publication US20100022559A1, “BISOXIMES AS FUNGICIDES” (BAYER CROPSCIENCE AG, priority 2006, published 2010).

Structures are written as SMILES. Read-outs that look alike come from different tables or passages of the source.

The data set is described as follows: logP determination by HPLC on a reversed-phase column (C 18), EEC Directive 79/831 Annex V.A8. Format: physicochemical. The protocol: The stated logP values were determined in accordance with EEC Directive 79/831 Annex V.A8 by HPLC (high performance liquid chromatography) on a reversed-phase column (C 18). Temperature: 43° C.
The mark [1] stands for this setting: method marker [a] (footnote not shown), isomer A / isomer B / isomer mixture as noted in the cell.
Where [2] appears, read: method marker [b], isomer A / isomer B / isomer mixture as noted in the cell.
The mark [3] stands for this setting: [a] acidic range, pH 2.3, 0.1% aqueous phosphoric acid and acetonitrile.

With `CC(=NOCCCCCCON=C(C)c1nc(C)c(C)s1)c1cccc(C)n1` (single isomer, unassigned) [compound 539], for the setting “method marked [b] in Table 1”, the logP was 4.86^[b] v(isomer B).

With `CCC(=NOCCCCCCON=C(C)c1cccc(C)n1)c1cccc(C)n1` [Compound 346], the logP (value marked [b]) was 5.59^[b].

As to `CC(=NOCC1(CON=C(C)c2cccc(C)n2)CCCCC1)c1cccc(C)n1` [Compound 561], the logP (method marked [b] in Table 1) was 6.09^[b] and the logP (method marked [c] in Table 1) is 7.15^[c].

For the compound `CC(=NOCC(C)CON=C(C)c1cccc(C)n1)c1ccncc1` (stereo not shown) [compound 493], for the setting “value marked [b]”, the logP is 2.04^[b].

As to `CC(=NOC(=O)CCC(=O)ON=C(C)c1cccc(C)n1)c1cccc(C)n1` [compound 159], the logP under setting [1] was 2.40^[a].

Take `C=C(CON=C(C)c1ccc2c(c1)OCO2)CON=C(C)c1cccc(C)n1` [compound 401]: the logP (value marked [b]) was 4.20^[b].

On to `CC(=NOCCON=C(C)c1ccncc1)c1ccncc1` [compound 28], for which the logP under setting [2] was 0.66^[b].

On to `CC(=NOCCCCON=C(c1cccc(C)n1)C1CC1)c1cccc(C)n1` [compound 335], for which the logP (value marked [b]) was 3.28^[b].

`C=C(CON=C(C)c1ccnc(C)c1)CON=C(C)c1cccc(C)n1` (single isomer, unassigned) [compound 533]: the logP (value marked [b]) is 1.74^[b] (isomer A).

For the compound `C=C(CON=Cc1cccc(C)n1)CON=C(C)c1cccc(C)n1` [compound 663], the logP (method marked [b] in Table 1) was 2.54^[b].

Turning to `COc1cc(OC)nc(C(C)=NOCC(C)CON=C(C)c2nc(OC)cc(OC)n2)n1` (stereo not shown) [Compound 272], the logP (value marked [b]) is 4.49^[b].

`C=C(CON=C(OCC)c1cccc(C)n1)CON=C(OCC)c1ccc(C)c(C)n1` [Compound 843]: the logP (value marked [a]) is 2.25^[a].

As to `CC(=NOCCCCCCON=C(C)c1ccnc(C)n1)c1cccc(C)n1` [compound 348], the logP (value marked [b]) is 4.51^[b].

Turning to `CC(=NOCC(C)(C)CON=C(C)c1cccc(C)n1)c1cc(C)ccn1` [compound 409], the logP (value marked [b]) was 3.65^[b].

For the compound `CCOc1cc(C)nc(C(C)=NOCC(C)(C)CON=C(C)c2cc(OCC)cc(C)n2)c1` [Compound 841], the logP is 2.00^[a] (value marked [a]) and 6.90^[c] (value marked [c]).

Consider `CC(=NOCC(C)CON=C(C)c1cc(C)n(C)n1)c1cc(C)n(C)n1` (mixture of isomers) [compound 261], for which, for the setting “value marked [a]”, the logP was 3.09^[a].

On to `CC(=NOCC(C)CON=C(C)c1ccnc(C)n1)c1cccc(C)n1` (stereo not shown) [compound 430], for which the logP (value marked [b]) was 3.56^[b].

For `C/C(=N\OC[Si](C)(C)CO/N=C(\C)c1cccc(C)n1)c1cccc(C)n1` [(1E,1E′)-1-(6-methylpyridin-2-yl)ethanone O,O′-[(dimethylsilanediyl)bis(methylene)]oxime], under “HCO2H, HPLC reversed-phase column (C 18), 43° C., read-out: logP (HCO2H)”, the chromatographic logP worked out at 4.5.

On to `C=C(CON=C(C)c1ccnc(C)c1)CON=C(C)c1cccc(C)n1` (single isomer, unassigned) [compound 362], for which the logP (value marked [b]) was 1.71^[b] (isomer B).

In the case of `C=C(CON=C(C)c1ncc(C(F)(F)F)cc1Cl)CON=C(C)c1ncc(C(F)(F)F)cc1Cl` [compound 149], the logP under setting [2] is 5.82^[b].

On to `C=C(CON=C(C)c1cccc(C(C)=O)n1)CON=C(C)c1cccc(C(C)=O)n1` [compound 120], for which, under setting [2], the logP was 5.15^[b].

`CC(=NOCC(C)CON=C(C)c1cccc(C)n1)c1ccc2c(c1)OCO2` (stereo not shown) [compound 435]: the logP (value marked [b]) was 4.57^[b].

On to `C=C(CON=C(C)c1cccc(C)n1)CON=C(C)c1cccs1` [compound 196], for which the logP under setting [2] was 4.23^[b].

As to `CC(=NOCC1(CON=C(C)c2nc(C)ccc2C)CC1)c1nc(C)ccc1C` (single isomer, unassigned) [compound 765], the logP is 3.15^[b] (value marked [b]) and 4.95^[c] (value marked [c]).

On to `CC(=NOCC(C)(C)CON=C(C)c1ccc2c(n1)CCCC2)c1ccc2c(n1)CCCC2` [Compound 303], for which, under “value marked [a]”, the logP was 5.49^[a].

For `C=C(CON=C(C)c1cccc(C)n1)CON=C(C)c1cccc(CCC)n1` [Compound 477], the logP (value marked [b]) was 5.42^[b].

`Cc1nc(C(N)=NOCC(C)CON=C(N)c2csc(C)n2)cs1` (stereo not shown) [compound 83]: under setting [2], the logP was 3.54^[b].

On to `C=C(CON=C(C)c1ccccn1)CON=C(C)c1ccccn1` [compound 60], for which, under setting [2], the logP was 3.00^[b].

With `C=C(CON=C(C)c1ccc(Cl)cc1)CON=C(C)c1cccc(C)n1` [compound 471], the logP (value marked [b]) is 5.48^[b].

On to `CC(=NOCC(C)(C)CON=C(C)c1cccc(C)n1)c1ccncc1` [compound 481], for which the logP (value marked [b]) was 2.41^[b].

In the case of `CC(=NOC/C=C/CON=C(C)c1ccccn1)c1ccccn1` [compound 781], the logP (value marked [b]) was 2.84^[b].

For the compound `C=C(CON=C(C)c1ccccn1)CON=C(C)c1cccc(C)n1` (single isomer, unassigned) [Compound 17], the logP under setting [2] was 3.10^[b] (isomer A).

As to `Cc1nc(C(N)=NOC/C=C/CON=C(N)c2nc(C)c(Cl)c(C)n2)nc(C)c1Cl` [compound 774], the logP (value marked [b]) is 2.70^[b].

As to `C=C(CON=C(C)c1cccc(C)n1)CON=C(C)c1nccc(C)n1` [compound 510], the logP (value marked [b]) is 2.37^[b].

In the case of `CCOC(CON=C(C)c1cccc(C)n1)CON=C(C)c1cccc(C)n1` (stereo not shown) [Compound 586], the logP reads like this: (method marked [b] in Table 1) 2.87^b]; (method marked [c] in Table 1) 4.76^[c].

Turning to `C/C(=N\OCC1(CON)CC1)c1ccc(C)c(C)n1` [XII-8, (1E)-1-(5,6-dimethylpyridin-2-yl)ethanone O-({1-[(aminooxy)methyl]-cyclopropyl}methyl)oxime], the chromatographic logP by setting is: (reversed-phase HPLC column (C 18), HCO2H, HPLC reversed-phase column (C 18), 43° C., read-out: logP (HCO2H)) 0.73; (reversed-phase HPLC column (C 18), [a] acidic range, pH 2.3, 0.1% aqueous phosphoric acid and acetonitrile, read-out: logP) 0.53; (reversed-phase HPLC column (C 18), [b] LC-MS, acidic range, pH 2.7, 0.1% aqueous formic acid and acetonitrile, read-out: logP) 0.53; (reversed-phase HPLC column (C 18), [c] LC-MS, neutral range, pH 7.8, 0.001 molar aqueous ammonium bicarbonate solution and acetonitrile, read-out: logP) 2.44.

For `CC(=NOC(C)CC(C)ON=C(C)c1cc(C)cc(C)n1)c1cc(C)cc(C)n1` (stereo not shown) [Compound 557], the logP is, setting by setting: (method marked [b] in Table 1) 2.39^[b]; (method marked [c] in Table 1) 6.63^[c].

Take `CC(=NOCC(CON=C(C)c1nc(C)ccc1C)C(C)(C)C)c1nc(C)ccc1C` (single isomer, unassigned) [compound 757]: the logP is, setting by setting: (method marked [b] in Table 1) 5.09^[b]; (method marked [c] in Table 1) 6.38^[c].

Turning to `CC(=NOCCCCCCON=C(C)c1cccc(CC(C)C)n1)c1cccc(C)n1` [compound 342], the logP (value marked [b]) is 7.36^[b].

In the case of `Cc1cccc(C(=NOCC(C)CON=C(c2cccc(C)n2)c2cccs2)c2cccs2)n1` (stereo not shown) [compound 673], the logP (method marked [b] in Table 1) is 4.49^[b].

On to `CC(=NOC/C=C/CON=C(C)c1ccc(C)c(C)n1)c1ccc(C)c(C)n1` [compound 684], for which, under “method marked [a] in Table 1”, the logP was 2.67^[a].

Regarding `CCC(CON=C(C)c1cccc(C)n1)CON=C(C)c1cccc(C)n1` (stereo not shown) [Compound 677], the logP was 4.38^[b] (method marked [b] in Table 1) and 5.97^[c] (method marked [c] in Table 1).

As for `CC(=NOCc1ccccc1CON=C(C)c1nc(C)c(C)s1)c1nc(C)c(C)s1` [compound 730], the logP (method marked [b] in Table 1) is 5.71^[b].

As for `C=C(CON=C(C)c1cccc(C)n1)CON=C(C)c1cccc(CC(C)C)n1` [compound 352], the logP (value marked [b]) was 6.03^[b].

For the compound `CCCC(=NOCCCON=C(CCC)c1cccc(C)n1)c1cccc(C)n1` [Compound 91], the logP under setting [1] was 5.83^[a].

In the case of `CC(=NOCCCCON=C(CC(C)C)c1cccc(C)n1)c1cccc(C)n1` (single isomer, unassigned) [compound 331], the logP (value marked [b]) was 5.46^[b] (isomer A).

Consider `C=C(CO/N=C(\N)c1nc(C)cc(C)n1)CO/N=C(\N)c1nc(C)cc(C)n1` [compound 8], for which the logP under setting [2] is 1.80^[b].

Take `Cc1cccc(C(=NOCCCON)C(C)C)n1` [XII-1]: under setting [3], the logP is 1.12^[a].

Turning to `COc1cc(C)nc(C(C)=NOCC(C)CON=C(C)c2cc(OC)cc(C)n2)c1` (stereo not shown) [Compound 806], the logP (value marked [a]) was 1.31^[a] and the logP (value marked [c]) was 5.25^[c].

`CC(=NOCCCON=C(C)c1cccnc1)c1cccnc1` [compound 33]: the logP under setting [2] is 1.51^[b].

With `CCC(CON=C(C)c1cc(C)cc(C)n1)CON=C(C)c1cc(C)cc(C)n1` (stereo not shown) [Compound 679], the logP (method marked [b] in Table 1) was 2.61^[b].

In the case of `CC(=NOCCCON=C(C)c1ccc2c(n1)CCC2)c1ccc2c(n1)CCC2` [Compound 302], the logP (value marked [a]) was 3.28^[a].

Take `Cc1cccnc1C(CC(C)C)=NOCCCON=C(CC(C)C)c1ncccc1C` [compound 93]: the logP under setting [1] was 5.96^[a].

`CC(=NOCC(C)CON=C(C)c1csc(Cl)n1)c1csc(Cl)n1` (mixture of isomers) [compound 231]: the logP under setting [1] was 5.16^[a].

As to `C/C(=N\OCC(C)(C)CON)c1cc(C)cc(C)n1` [XII-14], the logP by setting is: under setting [3], 0.8^[a]; ([b] LC-MS, acidic range, pH 2.7, 0.1% aqueous formic acid and acetonitrile) 0.8^[b]; ([c] LC-MS, neutral range, pH 7.8, 0.001 molar aqueous ammonium bicarbonate solution and acetonitrile) 2.89^[c].

For `CC(=NOCC(C)(C)CON=C(C)c1cccnc1C)c1cccc(C)n1` [compound 488], the logP (value marked [b]) was 2.20^[b].

With `CC(=NOCCCCON=C(C)c1nc(C)c(C)s1)c1nc(C)c(C)s1` [compound 125], the logP under setting [2] was 5.59^[b].

Consider `CC(=NOCC(C)(C)CON=C(C)c1cc(C2CC2)cc(C)n1)c1cc(C2CC2)cc(C)n1` [Compound 817], for which the logP is 3.27^[a] (value marked [a]) and 7.14^[c] (value marked [c]).

Regarding `CC(=NOCCCCCCON=C(C)c1cccc(C)n1)c1ccncc1` [compound 454], the logP (value marked [b]) is 2.62^[b].
